Type in all cases: in vivo
In one test the test system is Diabrotica balteata. Kind of test: Diabrotica balteata spray test. Conditions: Diabrotica balteata, in Triticum aestivum, 168 h, after 7 days, larvae on wheat seeds, read-out: efficacy (seedlings grown up); for pest or weed control at 160 µg/disc, 500 g/ha: 160 μg/well (=500 g/ha); for pest or weed control at 80 µg/disc, 250 g/ha: 80 μg/well (=250 g/ha). The method, boiled down:
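Germinated wheat seeds (5 per well, 1 day on agar) sprayed with compound diluted in water containing 1000 ppm emulsifier, then infested with 10–20 D. balteata larvae. Efficacy scored after 7 days: 100% = seedlings like untreated uninfested control, 0% = no seedlings grown.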

A further test deals with Meloidogyne incognita. Kind of test: Meloidogyne incognita test. To be noted: 20 ppm; after 14 days; salad seedlings. How it is done: Meloidogyne incognita—Test Solvent: 125.0 parts by weight of acetone To produce a suitable preparation of active compound, 1 part by weight of active compound is mixed with the stated amount of solvent, and the concentrate is diluted with water to the desired concentration. Vessels are filled with sand, a solution of the active ingredient, a suspension containing eggs and larvae of the southern root-knot nematode (Meloidogyne incognita) and salad seeds. The salad seeds germinate and the seedlings grow. Galls develop in the roots. After 14 days the nematicidal activity is determined on the basis of the percentage of gall formation. 100% means no galls were found and 0% means the number of galls found on the roots of the treated plants was equal to that in untreated control plants.

The subject of another test is Boophilus microplus. Kind of test: Boophilus microplus injection test. To be noted: Rhipicephalus microplus, 168 h; 20 μg/animal injected into the abdomen; adult engorged female ticks; egg deposition after 7 days; read-out: efficacy (infertile eggs). In a few lines: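 Five engorged adult female ticks received a 1 μl abdominal injection of compound in DMSO. They were then held in a climate chamber, with egg deposition checked after 7 days. Unclear eggs were kept until hatching at about 42 days, and efficacy was scored as the percentage of infertile eggs.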

For test [1], the system named is Ctenocephalides felis. Description: Ctenocephalides felis oral test. To be noted: 48 h, 100 ppm in cattle blood, after 2 days, adult unfed cat fleas. The method, boiled down:
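About 20 unfed adult cat fleas feed through parafilm on cattle blood dosed with compound from a DMSO stock. Blood chamber at 37° C, fleas at room temperature. Percent mortality scored after 2 days.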

A further test has as its system Nezara viridula. Description: Nezara viridula spray test. Conditions: 96 h, after 4 days, larvae on barley plants. The method, boiled down:
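Barley plants infested with Nezara viridula larvae were sprayed with compound diluted in water containing 1000 ppm emulsifier. Percent mortality was scored 4 days later, where 100% means all bugs killed and 0% none.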

The subject of the next test is Phaedon cochleariae. Kind of test: Phaedon cochleariae spray test. To be noted: foliar, 168 h, after 7 days, larvae on Chinese cabbage leaf disks. As to the method: Phaedon Cochleariae—Spray Test
(§1) To produce a suitable preparation of active compound, 1 part by weight of active compound is mixed with the stated amount of solvents and is diluted with water, containing an emulsifier concentration of 1000 ppm, to the desired concentration. Further test concentrations are prepared by dilution with emulsifier containing water.
Chinese cabbage (Brassica pekinensis) leaf disks are sprayed with a preparation of the active ingredient of the desired concentration. Once dry, the leaf disks are infested with mustard beetle larvae (Phaedon cochleariae).
After 7 days mortality in % is determined. 100% means all beetle larvae have been killed and 0% means none of the beetle larvae have been killed.

For a further test, the system named is Spodoptera frugiperda. Description: Spodoptera frugiperda spray test. Conditions: 168 h, after 7 days, larvae on maize leaf sections. The method, boiled down:
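Maize leaf sections were sprayed with compound formulated in solvent and diluted in water containing 1000 ppm emulsifier, then infested with fall armyworm larvae after drying. Percent mortality was scored after 7 days (100% = all caterpillars dead, 0% = none).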

Test [2] concerns Myzus persicae. Description: Myzus persicae oral test. Conditions: 120 h, after 5 days. In a few lines: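 Aphid mortality (%) was recorded 5 days after a mixed Myzus persicae population began sucking, through parafilm, on compound solutions (acetone stock diluted with water) combined with sugar-supplemented IPL41 medium.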
Test [3] concerns Ctenocephalides felis. Description: Ctenocephalides felis in-vitro contact test, adult cat flea. Conditions: 5 μg/cm^2 (=500 g/ha), after 48 hours, adult cat fleas, read-out: efficacy (fleas dead or moribund). The method, boiled down:
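Compound in acetone coated onto inner walls of glass tubes, e.g. 900 ppm giving 5 μg/cm². After drying, 5–10 adult C. felis added per tube and held at room temperature. At 48 h, fleas unable to escape a 45–50 °C heating plate within 5 min scored dead/moribund, giving % efficacy.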

Another test has as its system Rhipicephalus sanguineus. Kind of test: Rhipicephalus sanguineus in-vitro contact test, adult brown dog ticks. Conditions: 5 μg/cm^2 (=500 g/ha), after 48 hours, read-out: efficacy (ticks dead or moribund). As to the method:
Rhipicephalus Sanguineus—In-Vitro Contact Tests with Adult Brown Doe Ticks
9 mg compound is solved in 1 ml acetone and diluted with acetone to the desired concentration. 250 μl of the test solution is filled in 25 ml glass test tubes and homogeneously distributed on the inner walls by rotation and tilting on a shaking device (2 h at 30 rpm). With a compound concentration of 900 ppm, an inner surface of 44.7 cm^2 and a homogeneous distribution, a dose of 5 μg/cm^2 is achieved.
After the solvent has evaporated, each test tube is filled with 5-10 adult brown dog ticks (Rhipicephalus sanguineus), closed with a perforated lid and incubated in a lying position at room temperature and relative humidity. After 48 hours efficacy is determined. The ticks are patted on the ground of the tubes and are incubated on a heating plate at 45-50° C. for at most 5 minutes. Immotile or uncoordinated moving ticks, which are not able to escape the heat by climbing upwards, are marked as dead or moribund.
An efficacy of 100% means all ticks are dead or moribund; 0% means no ticks are dead or moribund.

The test system of test [4] is cattle ticks (Boophilus microplus) strane Parhurst, SP-resistant. Kind of test: Boophilus microplus dip test. Conditions: Rhipicephalus microplus, 168 h, engorged adult female cattle ticks, egg deposition after 7 days, read-out: efficacy (infertile eggs). As to the method:
Boophilus microplus—Dip Test
Test animal: cattle ticks (Boophilus microplus) strane Parhurst, SP-resistant
Solvent: dimethyl sulfoxide
To produce a suitable preparation of active compound, 10 mg of active compound are dissolved in 0.5 ml solvent, and the concentrate is diluted with water to the desired concentration.
This compound solution is pipetted into tubes. 8-10 engorged, adult, female cattle ticks (Boophilus microplus) are placed in perforated tubes. These tubes are immersed in the aqueous compound solution until the ticks are completely moistened. After the liquid has drained off, the ticks are transferred to a filter paper in a plastic tray and stored in a climate chamber.
After 7 days egg deposition of fertile eggs is monitored. Eggs where fertility is not visible are stored in a climate chamber till hatching after about 42 days. An efficacy of 100% means all eggs are infertile; 0% means all eggs are fertile.

Another test deals with Nilaparvata lugens. Description: Nilaparvata lugens spray test. To be noted: 336 h, after 14 days, rice plants. As to the method:
Nilaparvata lugens—Spray Test
as §1
Rice plants (Oryza sativa) are sprayed with a preparation of the active ingredient of the desired concentration and the plants are infested with the brown planthopper (Nilaparvata lugens).
After 14 days mortality in % is determined. 100% means all planthoppers have been killed and 0% means none of the planthoppers have been killed.

The subject of test [5] is Myzus persicae. Description: Myzus persicae spray test. To be noted: foliar, 120 h, after 5 days, Chinese cabbage leaf disks. In a few lines: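 Chinese cabbage leaf disks infested with all aphid instars were sprayed with compound diluted in water containing emulsifier (1000 ppm). Mortality (%) was scored after 5 days, 100% meaning all aphids killed.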

Each structure is given as a SMILES string.

Consider `COc1cc(C)nc(-n2ncnc2C(C)N(CC2CC2)C(=O)c2cc(Cl)cc(C(F)(F)F)c2)n1` (centres unmarked) [Example I-001], for which the pest or weed control at 160 µg/disc, 500 g/ha in the test on Diabrotica balteata came to 100%. Moreover, the “nematicidal activity (gall formation)” value in the test on Meloidogyne incognita is recorded as 100%.

Turning to `Cc1cc(C)nc(-n2ncnc2C(C)N(CC2CC2)C(=O)c2cc(Cl)cc(C(F)(F)F)c2)n1` (centres unmarked) [Example I-002, 3-Chloro-N-(cyclopropylmethyl)-N-{1-[1-(4,6-dimethylpyrimidin-2-yl)-1H-1,2,4-triazol-5-yl]ethyl}-5-(trifluoromethyl)benzamide], in the test with Meloidogyne incognita, the “nematicidal activity (gall formation)” value was 90%.

Usually mortality stands for the share of the test organisms that died. A lower mortality goes with a weak lethal effect. For the compound `CC(c1ncnn1-c1nc2ccccn2n1)N(CC1CC1)C(=O)c1cc(Cl)cc(C(F)(F)F)c1` (centres unmarked) [Example I-005], in the test with Boophilus microplus, the pest or weed control at 0.02 mg amounted to 100%. The mortality at 100 ppm with Ctenocephalides felis [1] amounted to 100%. Also, the pest or weed control at 80 µg/disc, 250 g/ha in the test with Diabrotica balteata turned out to be 100%. For the same compound, the pest or weed control at 160 µg/disc, 500 g/ha in the test on Diabrotica balteata was 100%. In addition, the mortality at 500 g/ha in the test on Nezara viridula, in the test on Phaedon cochleariae and with Spodoptera frugiperda was 100% throughout.

`CC(c1ncnn1-c1ccn(C)n1)N(CC1CC1)C(=O)c1cc(Cl)cc(C(F)(F)F)c1` (centres unmarked) [Example I-006]: in the test on Boophilus microplus, the pest or weed control at 0.02 mg came out at 100%. This compound came in with a mortality at 100 ppm in the test on Ctenocephalides felis [1] of 100%. Also, in the test with Diabrotica balteata, the pest or weed control at 80 µg/disc, 250 g/ha is 100%. Also, the pest or weed control at 160 µg/disc, 500 g/ha in the test on Diabrotica balteata was determined as 100%. In the test with Myzus persicae [2], this compound gave a mortality at 20 ppm of 100%. Besides, the mortality at 500 g/ha in the test with Phaedon cochleariae and in the test with Spodoptera frugiperda was 100% each time.

As to `CC(c1ncnn1-c1ncc(C#N)cn1)N(CC1CC1)C(=O)c1cc(Cl)cc(C(F)(F)F)c1` (centres unmarked) [Example I-008], in the test on Diabrotica balteata, the pest or weed control at 80 µg/disc, 250 g/ha is 100%. For the same compound, the pest or weed control at 160 µg/disc, 500 g/ha in the test on Diabrotica balteata stood at 100%. The mortality at 20 ppm in the test with Myzus persicae [2] amounted to 100%. The mortality at 100 g/ha with Nezara viridula is 90%; in the test with Spodoptera frugiperda it was 100%. For the same compound, the results for the mortality at 500 g/ha in the test with Nezara viridula, with Phaedon cochleariae and in the test on Spodoptera frugiperda were 90%, 100% and 100%, respectively.

As to `C[C@H](NC(=O)c1cc(Cl)cc(C(F)(F)F)c1)c1ncnn1-c1ncc(OC(F)F)cn1` [Example I-012], the pest or weed control at 5 µg/cm2 in the test on Ctenocephalides felis [3] and with Rhipicephalus sanguineus was 100% each time. Further, the pest or weed control at 0.02 mg with Boophilus microplus turned out to be 100%. For the same compound, in test [4], the pest or weed control at 100 ppm turned out to be 95%. Further, the mortality at 100 ppm with Ctenocephalides felis [1] worked out at 100%. In the test with Diabrotica balteata, the pest or weed control at 80 µg/disc, 250 g/ha turned out to be 100%. The pest or weed control at 160 µg/disc, 500 g/ha with Diabrotica balteata worked out at 100%. Besides, the mortality at 100 g/ha in the test on Nezara viridula and with Spodoptera frugiperda was 100% in each case. Moreover, the mortality at 500 g/ha in the test on Nezara viridula, in the test with Nilaparvata lugens and in the test with Spodoptera frugiperda was 100% in each case.

Take `C[C@H](NC(=O)c1cncc(C(F)(F)F)c1)c1ncnn1-c1ccc(C#N)cn1` [Example I-067]: the pest or weed control at 5 µg/cm2 with Ctenocephalides felis [3] and in the test with Rhipicephalus sanguineus was 100% in each case. In the test with Boophilus microplus, the pest or weed control at 0.02 mg came to 100%. In the test on Ctenocephalides felis [1], this compound yielded a mortality at 100 ppm of 100%. Besides, the pest or weed control at 80 µg/disc, 250 g/ha in the test on Diabrotica balteata was found to be 100%. Further, the pest or weed control at 160 µg/disc, 500 g/ha in the test with Diabrotica balteata was found to be 100%. In the test with Myzus persicae [2] (4 ppm), the mortality at 4 ppm was 100%. Also, the values for the mortality at 100 g/ha in the test on Myzus persicae [5] (100 g/ha), in the test with Nezara viridula and with Spodoptera frugiperda were 90%, 100% and 100%, respectively. The mortality at 500 g/ha in the test on Myzus persicae [5] (500 g/ha) is 90%; in the test with Nezara viridula, 100%; in the test on Nilaparvata lugens it was 90%; in the test on Spodoptera frugiperda, 100%.

Consider `C[C@H](NC(=O)c1cc(Cl)cc(C(F)(F)F)c1)c1ncnn1-c1ccc(-n2cccn2)cn1` [Example I-074], for which the pest or weed control at 5 µg/cm2 in the test on Ctenocephalides felis [3] came out at 80%. Moreover, the pest or weed control at 5 µg/cm2 with Rhipicephalus sanguineus was found to be 80%. Moreover, the pest or weed control at 0.02 mg in the test with Boophilus microplus was determined as 100%. In the test on Ctenocephalides felis [1], this compound yielded a mortality at 100 ppm of 80%. Besides, in the test on Diabrotica balteata, the pest or weed control at 80 µg/disc, 250 g/ha came to 100% and the pest or weed control at 160 µg/disc, 500 g/ha was found to be 100%. In the test with Spodoptera frugiperda, this compound showed a mortality at 100 g/ha of 100% and a mortality at 500 g/ha of 100%.

Values taken from patent US12171229B2, “Heteroaryl-triazole and heteroaryl-tetrazole compounds as pesticides” (BAYER AKTIENGESELLSCHAFT, priority 2018, dated 2024).
